Values quoted from earlier work as cited in patent publication US6268341A, “Expression of urokinase plasminogen activator inhibitors” (Chiron Corporation, priority 1998, dated 2001).
Where no end group is shown, it is not given here. Fuc = fucose (fucosylation)

Assays:
[1] = test system: osteosarcoma cell line, SaOS-2; details: Rabbani et al.
uPAR = uPAR (Homo sapiens, UniProt Q03405); details: Appella et al., J Biol Chem 1987
Sequence of uPAR (Q03405 23-335): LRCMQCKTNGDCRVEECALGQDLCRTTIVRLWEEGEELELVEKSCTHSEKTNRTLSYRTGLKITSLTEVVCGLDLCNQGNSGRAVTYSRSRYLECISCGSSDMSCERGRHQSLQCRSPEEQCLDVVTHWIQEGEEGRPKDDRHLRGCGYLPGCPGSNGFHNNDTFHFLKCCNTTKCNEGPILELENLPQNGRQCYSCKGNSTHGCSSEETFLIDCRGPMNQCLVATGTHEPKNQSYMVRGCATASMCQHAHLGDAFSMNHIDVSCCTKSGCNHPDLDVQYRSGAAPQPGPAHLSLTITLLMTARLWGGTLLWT

affinity relative to intact ATF (fold less) (uPAR)	Substance	mitogenic activity [1]
	fucosylated EGF-like domain: fucosylated EGF-like domain (uPA4-43, produced by cleavage from prouPA) (LHQVPSNCDCLNGGT(Fuc)CVSNKYFSNIHWCNCPKKFGGQHCE; cysteine pairing not given here; UniProt P00749 24-63, looked up, fragment)	mitogenic
about 100 fold	uPA12-32: critical receptor-binding domain alone, residues 12-32 of uPA (DCLNGGTCVSNKYFSNIHWCN; UniProt P00749 32-52, looked up, fragment)	
